{
  "source": "paper PMC6696115",
  "about": "“Characterization of Antimicrobial, Antioxidant, and Leishmanicidal Activities of Schiff Base Derivatives of 4-Aminoantipyrine” (Molecules, 2019)",
  "key": {"[1]": {"tested_on": "Aspergillus niger ATCC 6275", "assay": "antimicrobial serial microdilution, A. niger", "type": "cell-based", "protocol": "(§1) The in vitro antifungal and antimicrobial activities were determined by testing the Schiff bases against the fungi Saccharomyces cerevisiae, Candida albicans, and Aspergillus niger and the bacteria Staphylococcus aureus, Enterococcus faecalis (Gram-positive), Pseudomonas aeruginosa, and Escherichia coli (Gram-negative).\n(§2) The bacterial inoculum was prepared by emulsifying overnight colonies from an agar medium in broth (Mueller–Hinton broth). The suspensions were adjusted to a final organism density of 5 × 10^5 colony former units (cfu)/mL. […] The emulsifying of A. niger cultures was done by pouring 5 mL of saline and 0.1% of polysorbate 80 over the Petri dishes. Then, 100 µL of this suspension were diluted in 5 mL of saline and adjusted to an optical density of 0.1 at 530 nm. For S. cerevisiae, fresh exponential YPAD (yeast extract 1%, peptone 2%, adenine 0.004%, […]) cultures were adjusted to an optical density of 0.5 at 600 nm, and then diluted to the equivalent of 1 × 10^4 cells/mL (10^−3 dilution). Stock solutions of Schiff bases were prepared by dissolving them in DMSO at 10 mg/mL. […] The range of concentrations used was empirically selected for each organisms and the Schiff base. Drug sensitivities were assayed by serial dilutions in 96-well plates as previously described. A row with media and cells but without drug was the positive control. The blank was done by preparing a row with media and drugs, but without cells. Plates were fitted with a tight lid before incubation to prevent desiccation. […] The minimum bactericidal concentration (MBC) and fungicidal concentration (MFC) were determined by spreading 100 µL of culture from each well onto a plate (Mueller–Hinton agar for bacteria, Sabouraud dextrose agar for fungi except S. cerevisiae, and YPAD for S. cerevisiae)."}, "[2]": {"tested_on": "Enterococcus faecalis ATCC 29212", "assay": "antimicrobial serial microdilution, E. faecalis", "type": "cell-based", "protocol": "as §1, §2"}, "[3]": {"tested_on": "Escherichia coli ATCC 25922", "assay": "antimicrobial serial microdilution, E. coli", "type": "cell-based", "protocol": "as §1, §2"}, "[4]": {"tested_on": "S. cerevisiae wild-type (W303 and BY4741 backgrounds)", "assay": "drop test, wild-type yeast", "type": "cell-based, Saccharomyces cerevisiae", "conditions": "wild-type cells", "protocol": "Since the Schiff bases have a limited solubility in dimethyl sulfoxide (DMSO), first, we tested the toxicity of DMSO against the selected microorganism. […] Wild-type cells from W303 background seem to be more resistant, and sensitivity is observed at around 4% DMSO.\nNext, we wanted to evaluate the oxidative activity. To do this, drop test assays were performed with wild-type (W303 and BY4741 backgrounds) and sod1 (BY4741 background) yeast cells in the presence of 200 µg/mL of the analyzed Schiff bases (Figure 3). The SOD1 gene encodes superoxide dismutase 1, an enzyme with a major role in detoxifying ROS species generated during metabolism or because of environmental exposure. sod1 mutant cells are unprotected against oxidative agents, decreasing survival in their presence. […] Also, wild-type cells are shown as control, unaffected by the Schiff bases.\nFor the drop test with S. cerevisiae, wild-type strain (background W303), and wild type and sod1 mutant cells (background BY4741) were grown overnight in YPAD media until an optical density of 0.5 at 600 nm was reached (equivalent to 1 × 10^7 cells/mL). Three serial dilutions were prepared and 5 µL of each was spotted onto a plate (approximately 1 × 10^5, 1 × 10^4, 1 × 10^3, and 1 × 10^2 cells/spot). YPAD plates were supplemented with 200 µg/mL of each Schiff base, and one plate supplemented with 2% DMSO and one plate with YPAD without any drug were used as controls. Plates were incubated at 25 °C for 24, 48, and 72 h."}, "[5]": {"tested_on": "Staphylococcus aureus ATCC 29213", "assay": "antimicrobial serial microdilution, S. aureus", "type": "cell-based", "protocol": "as §1, §2"}, "[6]": {"tested_on": "Candida albicans ATCC 10231", "assay": "antimicrobial serial microdilution, C. albicans", "type": "cell-based", "protocol": "as §1, §2"}, "S. cerevisiae": {"tested_on": "S. cerevisiae", "parameters": "method as in PMID 24028688", "conditions": "published data; cited from earlier work"}, "[7]": {"tested_on": "S. cerevisiae (backgrounds W303 and BY4741)", "assay": "antimicrobial serial microdilution, S. cerevisiae", "type": "cell-based, Saccharomyces cerevisiae", "protocol": "as §1, §2"}, "[8]": {"tested_on": "promastigotes from L. mexicana (M379)", "assay": "leishmanicidal activity, MTT colorimetric assay", "type": "cell-based", "conditions": "Leishmania mexicana, 48 h exposure, 1% DMSO", "protocol": "Leishmanicidal activities of all Schiff bases were evaluated by measuring promastigote mitochondrial activity using MTT colorimetric assay as described previously. […] The medium was renewed every four days. Parasite density was determined in a Neubauer chamber.\nInto each well of a 96-well cell culture dish was dispensed 1 × 10^6 parasites. A stock solution of each of the Schiff Base was prepared in DMSO, and serial dilutions were added to the parasite suspension, keeping the solvent concentration at 1%. The final volume was 100 µL for each well and triplicate conditions were carried out. Pentamidine treatment (100 µg/mL) and untreated parasites were used as positive control and negative control, respectively. After exposure to the compounds for 48 h in culture medium, 10 µL of a solution of 5 mg/mL MTT dissolved in PBS was added to each well. […] Later, the plate was centrifuged at 4400 rpm for 10 min and the culture medium was then aspirated. Next, 100 µL of DMSO were added into each well to solubilize the formazan and the plate was shaken for 5 min. The colored formazan salt was measured by recording changes in absorbance at 570 nm using a microplate reader, a BioTek Synergy HT spectrophotometer. A reference wavelength of 630 nm was used to subtract background. Optical densities were analyzed as the quantity of formazan is directly proportional to the number of viable parasites. Data were analyzed with the statistical software GraphPad Prism."}, "[9]": {"assay": "DPPH radical scavenging assay", "type": "biochemical", "conditions": "30 min, room temperature, dark, absorbance 515 nm", "protocol": "This was used immediately. The experimental procedure was adapted from the literature. Briefly, in a 96-well plate, 100 µL of solution of DPPH (2, 2-diphenyl-1-picrylhydrazyl) radical (0.2 mM in methanol) was added to 100 µL of methanolic solutions of 3a–j, 4, or 5, prepared as serial two-fold dilutions from the stock solution. Standards were also prepared in the same concentrations.\nThe percentage of DPPH scavenging was then calculated by using the following formula: % DPPH scavenging=100∗Asample+DPPH−Asample blank/ADPPH−Asolvent"}, "P. aeruginosa ATCC 27853": {"tested_on": "P. aeruginosa ATCC 27853", "assay": "antimicrobial serial microdilution, P. aeruginosa", "type": "cell-based", "conditions": "Pseudomonas aeruginosa, ATCC27853, 37 °C, 24 h", "protocol": "as §1, §2"}, "[10]": {"conditions": "noninhibitory concentration, serial microdilution, 35 °C, 48 h"}, "[11]": {"conditions": "Escherichia coli, ATCC25922, serial microdilution, 37 °C, 24 h"}, "[12]": {"conditions": "noninhibitory concentration, serial microdilution, 37 °C, 24 h"}, "[13]": {"conditions": "Staphylococcus aureus, ATCC29213, serial microdilution, 37 °C, 24 h"}, "[14]": {"conditions": "Candida albicans, ATCC10231, serial microdilution, 35 °C, 48 h"}},
  "data": [
    {"smiles": "C[S+](C)[O-]", "note": "[DMSO, dimethyl sulfoxide]", "values": [
      {"measurement": "IC50 DMSO A. niger", "setting": "[1]; DMSO toxicity", "value": "4.36 ± 2.0", "unit": "%"},
      {"measurement": "MIC DMSO A. niger", "setting": "[1]; DMSO toxicity", "value": "19.22 ± 1.3", "unit": "%"},
      {"measurement": "NIC DMSO A. niger", "setting": "[1]; DMSO toxicity", "value": "1.78 ± 0.4", "unit": "%"},
      {"measurement": "IC50 DMSO E. faecalis", "setting": "[2]; DMSO toxicity", "value": "8.66 ± 0.6", "unit": "%"},
      {"measurement": "MIC DMSO E. faecalis", "setting": "[2]; DMSO toxicity", "value": "20.02 ± 1.3", "unit": "%"},
      {"measurement": "NIC DMSO E. faecalis", "setting": "[2]; DMSO toxicity", "value": "3.68 ± 0.2", "unit": "%"},
      {"measurement": "NIC DMSO E. coli", "setting": "[3]; DMSO toxicity", "value": "11.95 ± 2.9", "unit": "%"},
      {"measurement": "DMSO concentration at which cells begin to show diminished viability (drop test)", "setting": "[4]; BY4741 strain", "value": "≥ 3", "unit": "%"},
      {"measurement": "DMSO concentration at which sensitivity is observed (drop test)", "setting": "[4]; W303 background", "value": "around 4%"},
      {"measurement": "IC50 DMSO S. aureus", "setting": "[5]; DMSO toxicity", "value": "20.36 ± 5.2", "unit": "%"},
      {"measurement": "MIC DMSO S. aureus", "setting": "[5]; DMSO toxicity", "value": "32.64 ± 6.9", "unit": "%"},
      {"measurement": "NIC DMSO S. aureus", "setting": "[5]; DMSO toxicity", "value": "8.52 ± 0.9", "unit": "%"},
      {"measurement": "IC50 DMSO C. albicans", "setting": "[6]; DMSO toxicity", "value": "8.50 ± 0.5", "unit": "%"},
      {"measurement": "MIC DMSO C. albicans", "setting": "[6]; DMSO toxicity", "value": "14.98 ± 0.6", "unit": "%"},
      {"measurement": "NIC DMSO C. albicans", "setting": "[6]; DMSO toxicity", "value": "4.94 ± 0.5", "unit": "%"},
      {"measurement": "DMSO concentration significantly toxic for S. cerevisiae", "setting": "S. cerevisiae", "value": "over 2%"},
      {"measurement": "IC50 DMSO S. cerevisiae", "setting": "[7]; DMSO toxicity", "value": "35.62 ± 1.0", "unit": "%"},
      {"measurement": "MIC DMSO S. cerevisiae", "setting": "[7]; DMSO toxicity", "value": "71.47 ± 1.7", "unit": "%"},
      {"measurement": "NIC DMSO S. cerevisiae", "setting": "[7]; DMSO toxicity", "value": "5.04 ± 1.1", "unit": "%"}
    ]},
    {"smiles": "Cc1c(N=Cc2cc([N+](=O)[O-])ccc2O)c(=O)n(-c2ccccc2)n1C", "note": "[Compound 3f, 4-(2-Hydroxy-5-nitrobenzylideneamino)-1,5-dimethyl-2-phenyl-1H-pyrazol-3(2H)-one]", "values": [
      {"measurement": "IC50", "setting": "[1]; Aspergillus niger, ATCC6275, serial microdilution, 35 °C, 48 h", "value": 10.6, "unit": "µg/mL"},
      {"measurement": "MIC", "setting": "[1]; Aspergillus niger, ATCC6275, serial microdilution, 96-well plates, 35 °C, 48 h, max 2% DMSO", "value": "32.6 ± 2.1", "unit": "µg/mL"},
      {"measurement": "NIC A. niger", "setting": "[1]; [10]", "value": "3.4 ± 0.5", "unit": "µg/mL"},
      {"measurement": "MIC", "setting": "[2]; Enterococcus faecalis, ATCC29212, serial microdilution, 37 °C, 24 h", "value": "> 200", "unit": "µg/mL"},
      {"measurement": "IC50", "setting": "[3]; [11]", "value": 15.8, "unit": "µg/mL"},
      {"measurement": "MIC", "setting": "[3]; [11]", "value": "47.7 ± 1", "unit": "µg/mL"},
      {"measurement": "NIC E. coli", "setting": "[3]; [12]", "value": "4.9 ± 0.2", "unit": "µg/mL"},
      {"measurement": "IC50", "setting": "[5]; [13]", "value": 9.5, "unit": "µg/mL"},
      {"measurement": "MIC", "setting": "[5]; [13]", "value": "27.7 ± 4.7", "unit": "µg/mL"},
      {"measurement": "NIC S. aureus", "setting": "[5]; [12]", "value": "3.3 ± 1.5", "unit": "µg/mL"},
      {"measurement": "melting point", "value": "204.9 to 205.6", "unit": "°C"},
      {"measurement": "IC50", "setting": "[8]", "value": "5.3 ± 2.8", "unit": "µM"},
      {"measurement": "IC50", "setting": "[9]", "value": "> 200", "unit": "µM"},
      {"measurement": "IC50", "setting": "[6]; [14]", "value": 10.4, "unit": "µg/mL"},
      {"measurement": "MIC", "setting": "[6]; [14]", "value": "15.6 ± 0.9", "unit": "µg/mL"},
      {"measurement": "NIC C. albicans", "setting": "[6]; [10]", "value": "7.5 ± 1.1", "unit": "µg/mL"},
      {"measurement": "MIC", "setting": "P. aeruginosa ATCC 27853", "value": "> 200", "unit": "µg/mL"},
      {"measurement": "IC50", "setting": "[7]; Saccharomyces cerevisiae, serial microdilution, 35 °C, 48 h, read-out: IC50 S. cerevisiae (converted)", "value": 17.9, "unit": "µg/mL"},
      {"measurement": "MIC", "setting": "[7]; Saccharomyces cerevisiae, serial microdilution, 35 °C, 48 h, read-out: MIC S. cerevisiae", "value": "55.9 ± 6.2", "unit": "µg/mL"},
      {"measurement": "NIC S. cerevisiae", "setting": "[7]; [10]", "value": "5.6 ± 0.9", "unit": "µg/mL"}
    ]}
  ]
}
